Measurements reported in patent US8012945B2, “Phage antibodies to radiation-inducible neoantigens” (Vanderbilt University, priority 2001, dated 2011).

Columns and labels:
[1] = tested on: irradiated tumors (LLC and GL261); experiment: In vivo screening of T7 phage peptide library, LLC and GL261 tumors pooled; design: species or system mice; settings: for Frequency of Recovery: conserved motifs within peptides identified by in vivo screening
Protocol: GL261 murine glioma cells and Lewis lung carcinoma cells were implanted into the hind limb of C57BL6 mice (Hallahan et al., 1995b; Hallahan et al., 1998; Hallahan & Virudachalam, 1999).
For in vivo screening, tumors were irradiated with 3 Gy and approximately 10^10 phage (prepared as described in Example 4) were administered by tail vein injection into each of the tumor bearing mice at 4 hours following irradiation. Tumors were recovered at one hour following injection and amplified in BL21 bacteria. Amplified phage were pooled and re-administered to a tumor-bearing mouse following tumor irradiation. The phage pool was sequentially administered to a total of 6 animals. As a control, wild type phage lacking synthetic peptide inserts were identically administered to a second experimental group of animals.
To determine the titer of phage binding in a tumor or in normal tissue, recovered phage were amplified in BL21 bacteria. Bacteria were plated and the number of plaques present were counted. To determine the total phage output per organ, the number of plaque forming units (PFU) on each plate was divided by the volume of phage plated and the weight of each organ.
An individual phage suspension was used as template. Amplified peptides were sequenced using an ABI PRISM 377 sequencer (PE Biosystems, Foster City, Calif., United States of America).

LLC tumors = experiment: In vivo screening of T7 phage peptide library, irradiated LLC tumors; design: species or system mice; settings: 3 Gy, 6 rounds of in vivo screening; for Number of Phage Recovered from LLC tumors: randomly selected phage
Protocol: (§1) A population of DNA fragments encoding recombinant peptide sequences was cloned into the T7 […] vector (Novagen, Madison, Wis., United States of America). […] The resulting reading frame requires an AAT initial codon followed by a TCX codon. The molar ratio between insert and vector was 1:1. Size-fractionated cDNA inserts were prepared by gel filtration on sepharose 4B and ranged from 27 base pairs to 33 base pairs. cDNAs were ligated by use of the DNA ligation kit (Novagen, Madison, Wis., United States of America). Recombinant T7 DNA was packaged according to the manufacturer's instructions and amplified prior to bioscreening in animal tumor models. […] GL261 murine glioma cells and Lewis lung carcinoma cells were implanted into the hind limb of C57BL6 mice ([…] et al., 1995[…] et al., 1998; […], 1999). […] Tumors were recovered at one hour following injection and amplified in BL21 bacteria. Amplified phage were pooled and re-administered to a tumor-bearing mouse following tumor irradiation. The phage pool was sequentially administered to a total of 6 animals. […] To determine the titer of phage binding in a tumor or in normal tissue, recovered phage were amplified in BL21 bacteria. Bacteria were plated and the number of plaques present were counted. To determine the total phage output per organ, the number of plaque forming units (PFU) on each plate was divided by the volume of phage plated and the weight of each organ. […] Following 6 rounds of in vivo screening, fifty recombinant phage peptides that bound within irradiated tumors were randomly selected for further analysis. The nucleic acid sequence encoding recombinant phage was amplified by PCR using primers set forth as SEQ ID NOs: 14-15 (available from Novagen, Madison, Wis., United States of America). An individual phage suspension was used as template. Amplified peptides were sequenced using an ABI PRISM 377 sequencer (PE Biosystems, Foster City, Calif., United States of America).

GL261 tumors = experiment: In vivo screening of T7 phage peptide library, irradiated GL261 tumors; design: species or system mice; settings: 3 Gy, 6 rounds of in vivo screening; for Number of Phage Recovered from GL261 tumors: randomly selected phage
Protocol: as §1

[2] = tested on: melanoma, lung carcinoma, and glioma tumor models; experiment: Binding of peptide-encoding phage in additional tumor models; type: in vivo, mice; settings: B16F0 melanoma, Lewis lung carcinoma, GL261 glioma
Source text: The binding properties of phage encoding […] (SEQ ID NO: 1), […] (SEQ ID NO: 2), […] (SEQ ID NO: 3), and NSVGSRV (SEQ ID NO: 4) were additionally characterized in a B16F0 melanoma model.

| Substance | Frequency of Recovery [1] [%] | Phage Recovered from LLC tumors (Frequency) (LLC tumors) [%] | Number of Phage Recovered from LLC tumors (LLC tumors) | Number of Phage Recovered from GL261 tumors (GL261 tumors) | binding of phage encoding the peptide within tumor models [2] | also measured |
| --- | --- | --- | --- | --- | --- | --- |
| GSRV (Artificial peptide ligand number 7) | – | – | – | – | – | share of peptide sequences recovered from 6 irradiated tumors having the subsequence ([1]; mouse, in vivo): 4% |
| GSSV (Artificial peptide ligand number 13) | 56 | – | – | – | – | phage recovered from irradiated tumors ([1]; mouse, in vivo): 22-40 of 10^6 injected phage; share of peptide sequences recovered from 6 irradiated tumors having the subsequence ([1]; mouse, in vivo): 56% |
| GSXV [conserved motif within recovered peptides] | 78 | – | – | – | – | – |
| NHVGGSSV (Artifical peptide ligand number 1) | – | 28 | 7 | 12 | bound within the melanoma, lung carcinoma, and glioma tumor models | Phage Recovered from GL261 tumors (Frequency) (GL261 tumors): 48% |
| NSLRGDGSSV (phage-displayed; Artificial peptide ligand number 2) | – | 28 | 7 | 2 | bound within the melanoma, lung carcinoma, and glioma tumor models | Phage Recovered from GL261 tumors (Frequency) (GL261 tumors): 8% |
| NSV (Artificial peptide ligand number 10) [conserved motif within recovered peptides] | 22 | – | – | – | – | – |
| NSVGSRV (Artificial peptide ligand number 4) | – | 4 | 1 | 3 | bound within lung carcinoma and glioma | Phage Recovered from GL261 tumors (Frequency) (GL261 tumors): 12% |
| NSVRGSGSGV (Artificial peptide ligand number 3) | – | 28 | 7 | 0 | bound within glioma and melanoma | – |
| NSXR [conserved motif within recovered peptides] | 32 | – | – | – | – | – |
| NSXRGXGS [conserved motif within recovered peptides] | 32 | – | – | – | – | – |
| NXVG [conserved motif within recovered peptides] | 46 | – | – | – | – | – |
| RGDGSSV (Artificial peptide ligand number 6) | – | – | – | – | – | share of peptide sequences recovered from 6 irradiated tumors having the subsequence ([1]; mouse, in vivo): 18% |
